Assay results reported in the supplement of paper PMC10307832.

Key:
Assay in all cases: relative viability (nuclei count vs DMSO), 5 days (fraction); higher = more cells survive
[1] = compound: Cc1cnc(-c2cnc(NCCNc3ccc(C#N)cn3)nc2-c2ccc(Cl)cc2Cl)[nH]1
Method in brief: (§1)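 Lung cancer cell lines in 1536-well plates were exposed by pinning to five library-drug doses (not always all listed) √10 apart, following an overnight hold at 37 °C. MetaXpress counted Hoechst-stained nuclei from 4× images taken after 5 days without medium change. Viability is the median ratio of treated-well to vehicle-well nuclei across plates. Plates required control CV below 25% and at least one doubling.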

Tivozanib = compound: COc1cc2nccc(Oc3ccc(NC(=O)Nc4cc(C)on4)c(Cl)c3)c2cc1OC [Tivozanib]
Method in brief: as §1

Docetaxel = compound: CC(=O)O[C@@]12CO[C@@H]1C[C@H](O)[C@@]1(C)C(=O)[C@H](O)C3=C(C)[C@@H](OC(=O)[C@H](O)[C@@H](NC(=O)OC(C)(C)C)c4ccccc4)C[C@@](O)([C@@H](OC(=O)c4ccccc4)[C@H]21)C3(C)C [Docetaxel]
Method in brief: as §1

JQ1 = compound: Cc1sc2c(c1C)C(c1ccc(Cl)cc1)=N[C@@H](CC(=O)OC(C)(C)C)c1nnc(C)n1-2 [JQ1]
Method in brief: as §1

Pimozide = compound: O=c1[nH]c2ccccc2n1C1CCN(CCCC(c2ccc(F)cc2)c2ccc(F)cc2)CC1 [Pimozide]
Method in brief: as §1

Cytarabine = compound: Nc1ccn([C@@H]2O[C@H](CO)[C@@H](O)[C@@H]2O)c(=O)n1 [Cytarabine]
Method in brief: as §1

CPI-613 = compound: O=C(O)CCCCC(CCSCc1ccccc1)SCc1ccccc1 [CPI-613]
Method in brief: as §1

Row | Cell Line | relative viability ([1]; 0.08 µM) | relative viability ([1]; 0.8 µM) | relative viability ([1]; 2.53 µM) | relative viability (Tivozanib; 0.005 µM) | relative viability (Tivozanib; 0.01581 µM) | relative viability (Tivozanib; 0.05 µM) | relative viability (Tivozanib; 0.1581 µM) | relative viability (Tivozanib; 0.5 µM) | relative viability (Docetaxel; 0.0002 µM) | relative viability (Docetaxel; 0.000632 µM) | relative viability (Docetaxel; 0.002 µM) | relative viability (Docetaxel; 0.006325 µM) | relative viability (Docetaxel; 0.02 µM) | relative viability (JQ1; 0.04 µM) | relative viability (JQ1; 0.1265 µM) | relative viability (JQ1; 0.4 µM) | relative viability (JQ1; 1.265 µM) | relative viability (JQ1; 4 µM) | relative viability (Pimozide; 0.08 µM) | relative viability (Pimozide; 0.253 µM) | relative viability (Pimozide; 0.8 µM) | relative viability (Pimozide; 2.53 µM) | relative viability (Pimozide; 8 µM) | relative viability (Cytarabine; 0.005 µM) | relative viability (Cytarabine; 0.01581 µM) | relative viability (Cytarabine; 0.05 µM) | relative viability (Cytarabine; 0.1581 µM) | relative viability (Cytarabine; 0.5 µM) | relative viability (CPI-613; 5 µM) | relative viability (CPI-613; 15.81 µM) | relative viability (CPI-613; 50 µM) | relative viability (CPI-613; 158.11 µM) | relative viability (CPI-613; 500 µM) | relative viability ([1]; 0.253 µM)
1 | NCI-H1944 | 1.09 | 1.01 | 0.916 | 0.925 | 0.998 | 0.949 | 0.849 | 0.978 | 0.948 | 1 | 0.822 | 0.336 | 0.173 | 0.951 | 0.709 | 0.612 | 0.53 | 0.485 | 0.925 | 0.877 | 0.698 | 0.795 | 0.944 | 0.654 | 0.481 | 0.381 | 0.23 | 0.159 | 0.918 | 0.922 | 0.947 | 0.712 | 0.51 | 
2 | NCI-H1975 | 0.859 | 0.813 | 0.647 | 0.842 | 0.922 | 0.991 | 0.852 | 0.786 | 0.916 | 0.702 | 0.344 | 0.213 | 0.168 | 0.953 | 0.643 | 0.782 | 0.597 | 0.53 | 0.916 | 0.941 | 0.92 | 0.966 | 0.775 | 1.07 | 1.08 | 0.987 | 0.546 | 0.35 | 0.919 | 0.901 | 0.984 | 0.87 | 0.075 | 0.888
3 | NCI-H1993 | 0.951 | 1.03 | 1.07 | 0.945 | 0.867 | 1.13 | 0.589 | 0.762 | 0.778 | 0.964 | 0.806 | 0.597 | 0.5 | 0.919 | 0.994 | 0.922 | 0.663 | 0.709 | 0.822 | 0.824 | 0.816 | 0.969 | 0.912 | 0.941 | 0.916 | 0.764 | 0.655 | 0.519 | 0.84 | 0.932 | 0.967 | 0.717 | 0.439 | 0.789
4 | NCI-H2009 | 1.01 | 1.08 | 0.943 | 0.955 | 1 | 1.02 | 0.994 | 0.91 | 0.955 | 1 | 0.944 | 0.456 | 0.239 | 0.96 | 0.645 | 0.574 | 0.297 | 0.313 | 0.997 | 0.985 | 1.01 | 0.909 | 0.926 | 1.01 | 1.01 | 0.997 | 0.724 | 0.398 | 0.995 | 0.939 | 0.923 | 0.24 | 0.0296 | 0.93
5 | NCI-H2023 | 1.32 | 1.06 | 0.939 | 0.966 | 0.951 | 0.927 | 0.847 | 0.923 | 0.846 | 0.547 | 0.147 | 0.12 | 0.0751 | 0.893 | 0.665 | 0.439 | 0.243 | 0.207 | 0.993 | 0.961 | 0.82 | 0.858 | 0.778 | 0.542 | 0.282 | 0.172 | 0.107 | 0.0892 | 0.926 | 0.836 | 0.91 | 0.0969 | 0.0098 | 0.794
6 | NCI-H2085 | 1.04 | 0.995 | 1.02 | 0.982 | 1 | 1.02 | 0.936 | 0.982 | 0.968 | 0.987 | 0.746 | 0.504 | 0.373 | 1.01 | 0.891 | 0.867 | 0.622 | 0.537 | 0.973 | 1.01 | 0.957 | 1.02 | 0.881 | 0.965 | 0.929 | 0.868 | 0.808 | 0.801 | 0.987 | 0.935 | 0.935 | 0.82 | 0.246 | 0.933
7 | NCI-H2087 | 1.12 | 1.05 | 0.886 | 0.988 | 0.972 | 0.956 | 1.28 | 0.995 | 0.947 | 0.5 | 0.223 | 0.182 | 0.107 | 0.996 | 0.661 | 0.963 | 0.581 | 0.451 | 1.11 | 1.05 |  | 1.05 | 0.773 | 0.946 | 0.888 | 0.722 | 0.614 | 0.36 | 0.971 | 1.09 | 0.954 | 0.307 | 0.0055 | 0.723
8 | NCI-H2126 | 1.03 | 0.952 | 1.04 | 0.968 | 0.961 | 1.04 | 0.713 | 0.98 | 1.02 | 0.886 | 0.624 | 0.369 | 0.227 | 1.01 | 0.928 | 0.858 | 0.697 | 0.648 | 0.978 | 0.948 | 1.02 | 0.966 | 0.986 | 0.887 | 0.9 | 0.716 | 0.714 | 0.618 | 0.98 | 0.991 | 1.05 | 0.563 | 0.592 | 0.927
9 | NCI-H2170 | 1.1 | 0.989 | 0.958 | 0.928 | 0.923 | 0.956 |  | 1.02 | 1.01 | 0.999 | 0.828 | 0.271 | 0.201 | 1 | 0.778 | 0.908 | 0.711 | 0.503 | 1.05 | 0.94 | 0.956 | 0.945 | 0.947 | 0.822 | 0.741 | 0.688 | 0.463 | 0.402 | 0.939 | 0.903 | 0.998 | 0.802 | 0.301 | 0.655
